Test results from patent publication US20230049231A1 (priority 2019, published 2023).

How the values were obtained:
[1] = molecular target: T1, hERG channel (Homo sapiens, UniProt Q12809); assay: hERG electrophysiology, automated whole-cell patch clamp (Patchliner); type: cell-based; settings: hERG channel, whole-cell patch clamp
T1 construct: expressed in transfected cells
How it was run: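 Currents were recorded at 0.3 Hz from −80 mV, stepping to +20 mV then −50 mV (300 ms each), in stably transfected CHO-K1 cells. Concentrations (30 nM–100 μM, up to 0.3% DMSO) were added sequentially without washout. IC50 came from Hill fits of control-normalized AUC/peak of each train's final pulse.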

[2] = molecular target: T2, Kv1.3 potassium channel (Homo sapiens, UniProt P22001); assay: Kv1.3 potassium channel blocker activity, automated whole-cell patch clamp (Patchliner); type: cell-based; settings: Kv1.3 potassium channel, whole-cell patch clamp
T2 construct: expressed in transfected cells
How it was run: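 IC50 came from Hill-equation fits of peak and AUC currents from the final pulse at each concentration, normalized to compound-free control. Compounds applied consecutively at 30 nM to 100 μM (up to 0.3% DMSO) to Kv1.3-expressing CHO-K1 cells, P/4 leak subtraction. Pulses were +40 mV, 100 ms, from −90 mV holding, at 0.1 Hz on Patchliner.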

T2 sequence (P22001 whole entry): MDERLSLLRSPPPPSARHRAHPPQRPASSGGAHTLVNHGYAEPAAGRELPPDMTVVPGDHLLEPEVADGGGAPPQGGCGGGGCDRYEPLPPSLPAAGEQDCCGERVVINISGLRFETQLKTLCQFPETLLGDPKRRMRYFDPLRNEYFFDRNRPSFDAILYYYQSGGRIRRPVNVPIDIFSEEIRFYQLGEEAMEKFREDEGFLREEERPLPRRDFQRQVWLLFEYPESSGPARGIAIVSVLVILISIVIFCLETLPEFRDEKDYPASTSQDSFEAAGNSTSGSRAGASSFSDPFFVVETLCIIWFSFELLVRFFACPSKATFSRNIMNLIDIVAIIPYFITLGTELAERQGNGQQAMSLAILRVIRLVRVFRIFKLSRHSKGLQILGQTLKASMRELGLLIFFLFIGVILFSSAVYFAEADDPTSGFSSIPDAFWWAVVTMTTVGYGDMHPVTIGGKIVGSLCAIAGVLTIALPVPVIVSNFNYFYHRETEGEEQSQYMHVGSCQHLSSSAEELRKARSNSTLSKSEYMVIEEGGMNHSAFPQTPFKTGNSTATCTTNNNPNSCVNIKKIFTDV
T1 sequence (Q12809 whole entry): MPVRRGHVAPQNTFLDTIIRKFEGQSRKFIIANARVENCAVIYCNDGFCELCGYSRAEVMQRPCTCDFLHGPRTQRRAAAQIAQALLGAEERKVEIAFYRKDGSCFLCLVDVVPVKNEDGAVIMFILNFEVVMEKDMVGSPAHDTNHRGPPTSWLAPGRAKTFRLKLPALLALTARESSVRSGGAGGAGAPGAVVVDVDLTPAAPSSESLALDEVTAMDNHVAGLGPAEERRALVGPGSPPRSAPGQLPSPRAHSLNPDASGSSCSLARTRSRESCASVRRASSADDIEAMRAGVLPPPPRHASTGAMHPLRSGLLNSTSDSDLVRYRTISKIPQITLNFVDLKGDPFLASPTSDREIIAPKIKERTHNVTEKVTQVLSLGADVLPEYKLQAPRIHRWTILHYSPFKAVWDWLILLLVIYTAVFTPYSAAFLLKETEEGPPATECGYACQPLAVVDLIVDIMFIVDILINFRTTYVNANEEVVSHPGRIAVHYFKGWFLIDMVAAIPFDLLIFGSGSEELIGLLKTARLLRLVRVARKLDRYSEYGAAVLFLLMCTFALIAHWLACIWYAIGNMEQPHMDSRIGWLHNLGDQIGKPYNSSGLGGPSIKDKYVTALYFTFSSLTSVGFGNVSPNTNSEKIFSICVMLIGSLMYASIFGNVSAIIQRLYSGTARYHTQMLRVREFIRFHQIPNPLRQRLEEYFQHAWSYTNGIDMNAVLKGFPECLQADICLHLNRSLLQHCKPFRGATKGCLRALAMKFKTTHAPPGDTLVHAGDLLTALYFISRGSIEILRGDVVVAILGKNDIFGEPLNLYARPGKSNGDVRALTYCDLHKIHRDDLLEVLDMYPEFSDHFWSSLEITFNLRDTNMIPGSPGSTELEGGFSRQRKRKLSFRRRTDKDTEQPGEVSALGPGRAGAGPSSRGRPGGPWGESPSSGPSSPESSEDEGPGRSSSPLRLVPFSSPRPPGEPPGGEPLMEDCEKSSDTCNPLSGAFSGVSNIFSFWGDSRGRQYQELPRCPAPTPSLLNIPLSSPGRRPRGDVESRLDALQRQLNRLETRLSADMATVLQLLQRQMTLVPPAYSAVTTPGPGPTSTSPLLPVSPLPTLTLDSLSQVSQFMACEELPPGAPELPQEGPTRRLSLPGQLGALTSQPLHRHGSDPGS

Row | SMILES | IC50 [1] [µM] | IC50 [2] [µM]
1 | O=C1CN(C(=O)C2(CO)CC2)C[C@@H]2C[C@H](c3c(O)ccc(Cl)c3Cl)CN12 [Compound 67, (7R,8aS)-7-(2,3-dichloro-6-hydroxyphenyl)-2-[1-(hydroxymethyl)cyclopro-panecarbonyl]-hexahydropyrrolo[1,2-a]pyrazin-4-one] | > 30 | < 1
2 | O=C(CC(F)F)N1CC(=O)N2C[C@@H](c3c(O)ccc(Cl)c3Cl)C[C@H]2C1 [Compound 68, (7R,8aS)-7-(2,3-dichloro-6-hydroxyphenyl)-2-(3,3-difluoropropanoyl)-hexahydropyrrolo [1,2-a]pyrazin-4-one] | > 30 | < 1
3 | CC[C@@H](O)CC(=O)N1CC(=O)N2C[C@@H](c3c(O)ccc(Cl)c3Cl)C[C@H]2C1 [Compound 69, (7R,8aS)-7-(2,3-dichloro-6-hydroxyphenyl)-2-[(3R)-3-hydroxypentanoyl]-hexahydropyrrolo [1,2-a]pyrazin-4-one] | > 30 | < 1
4 | CC[C@H](O)CC(=O)N1CC(=O)N2C[C@@H](c3c(O)ccc(Cl)c3Cl)C[C@H]2C1 [Compound 70, (7R,8aS)-7-(2,3-dichloro-6-hydroxyphenyl)-2-[(3S)-3-hydroxypentanoyl]-hexahydropyrrolo [1,2-a]pyrazin-4-one] | < 30 | < 1
5 | O=C(C[C@H](O)C1CC1)N1CC(=O)N2C[C@@H](c3c(O)ccc(Cl)c3Cl)C[C@H]2C1 [Compound 71, (7R,8aS)-2-[(3S)-3-cyclopropyl-3-hydroxypropanoyl]-7-(2,3-dichloro-6-hydroxyphenyl)-hexahydropyrrolo [1,2-a]pyrazin-4-one] | < 30 | < 1
6 | O=C(C[C@@H](O)C1CC1)N1CC(=O)N2C[C@@H](c3c(O)ccc(Cl)c3Cl)C[C@H]2C1 [Compound 72, (7R,8aS)-2-[(3R)-3-cyclopropyl-3-hydroxypropanoyl]-7-(2,3-dichloro-6-hydroxyphenyl)-hexahydropyrrolo [1,2-a]pyrazin-4-one] | < 30 | < 1
7 | O=C(CC(O)C(F)F)N1CC(=O)N2C[C@@H](c3c(O)ccc(Cl)c3Cl)C[C@H]2C1 (stereo partly drawn) [Compound 73, (7R,8aS)-7-(2,3-dichloro-6-hydroxyphenyl)-2-(4,4-difluoro-3-hydroxybutanoyl)-hexahydropyrrolo [1,2-a]pyrazin-4-one] | > 30 | < 1
8 | O=C([C@@H]1OCC[C@@H]1O)N1CC(=O)N2C[C@@H](c3c(O)ccc(Cl)c3Cl)C[C@H]2C1 [Compound 74, (7R,8aS)-7-(2,3-dichloro-6-hydroxyphenyl)-2-[(2R,3S)-3-hydroxyoxolane-2-carbonyl]-hexahydropyrrolo [1,2-a]pyrazin-4-one] | > 30 | < 1
9 | O=C(C[C@H](O)C(F)F)N1CC(=O)N2C[C@@H](c3c(O)ccc(Cl)c3Cl)C[C@H]2C1 [Compound 75, (7R,8aS)-7-(2,3-dichloro-6-hydroxyphenyl)-2-[(3S)-4,4-difluoro-3-hydroxybutanoyl] hexahydropyrrolo [1,2-a]pyrazin-4-one] | > 30 | < 1
10 | O=C(C[C@@H](O)C(F)F)N1CC(=O)N2C[C@@H](c3c(O)ccc(Cl)c3Cl)C[C@H]2C1 [Compound 76, (7R,8aS)-7-(2,3-dichloro-6-hydroxyphenyl)-2-[(3R)-4,4-difluoro-3-hydroxybutanoyl]-hexahydropyrrolo [1,2-a]pyrazin-4-one] | > 30 | < 1
11 | CCC[C@H](CO)C(=O)N1CC(=O)N2C[C@@H](c3c(O)ccc(Cl)c3Cl)C[C@H]2C1 [Compound 77, (7R,8aS)-7-(2,3-dichloro-6-hydroxyphenyl)-2-[(2R)-2-(hydroxymethyl)pentanoyl]-hexahydropyrrolo [1,2-a]pyrazin-4-one] | > 30 | < 1
12 | O=C(C[C@@H](O)CO)N1CC(=O)N2C[C@@H](c3c(O)ccc(Cl)c3Cl)C[C@H]2C1 [Compound 78, (7R,8aS)-7-(2,3-dichloro-6-hydroxyphenyl)-2-[(3R)-3,4-dihydroxybutanoyl]-hexahydropyrrolo [1,2-a]pyrazin-4-one] | > 30 | < 1
13 | C[C@@H]1NC[C@@H]2C[C@H](c3c(O)ccc(Cl)c3Cl)CN2C1=O [Compound 85, (3S,7R,8aS)-7-(2,3-dichloro-6-hydroxyphenyl)-3-methyl-hexahydro-1H-pyrrolo[1,2-a]pyrazin-4-one] | < 30 | < 1
14 | C[C@@H]1CC(=O)N2C[C@@H](c3c(O)ccc(Cl)c3Cl)C[C@H]2CN1C(=O)CO [Compound 93, (3R,8R,9aS)-8-(2,3-dichloro-6-hydroxyphenyl)-2-(2-hydroxyacetyl)-3-methyl-hexahydro-1H-pyrrolo[1,2-a][1,4]diazepin-5-one] | < 30 | < 1
15 | C[C@H]1CC(=O)N2C[C@@H](c3c(O)ccc(Cl)c3Cl)C[C@H]2CN1C(=O)CO [Compound 94, (3S,8R,9aS)-8-(2,3-dichloro-6-hydroxyphenyl)-2-(2-hydroxyacetyl)-3-methyl-hexahydro-1H-pyrrolo[1,2-a][1,4]diazepin-5-one] | > 30 | < 1
16 | NC(=O)N1CC(=O)N2CC[C@@H](c3c(O)ccc(Cl)c3Cl)C[C@H]2C1 [Compound 96, (8R,9aS)-8-(2,3-dichloro-6-hydroxyphenyl)-4-oxo-hexahydro-1H-pyrido[1,2-a]pyrazine-2-carboxamide] | > 30 | < 1
17 | NC(=O)N1CCC(=O)N2C[C@@H](c3c(O)ccc(Cl)c3Cl)C[C@H]2C1 [Compound 97, (8R,9aS)-8-(2,3-dichloro-6-hydroxyphenyl)-5-oxo-hexahydro-1H-pyrrolo [1,2-a][1,4]diazepine-2-carboxamide] | > 30 | < 1
18 | CC1(O)CN(C(=O)N2CC(=O)N3C[C@@H](c4c(O)ccc(Cl)c4Cl)C[C@H]3C2)C1 [Compound 100, (7R,8aS)-7-(2,3-dichloro-6-hydroxyphenyl)-2-(3-hydroxy-3-methylazetidine-1-carbonyl)-hexahydropyrro[1,2-a]pyrazine-4-one] | > 30 | < 1
19 | O=C(N1CC[C@@H](O)C1)N1CC(=O)N2C[C@@H](c3c(O)ccc(Cl)c3Cl)C[C@H]2C1 [Compound 101, (7R,8aS)-7-(2,3-dichloro-6-hydroxyphenyl)-2-[(3R)-3-hydroxypyrrolidine-1-carbonyl]-hexahydropyrro[1,2-a]pyrazine-4-one] | > 30 | < 1
20 | O=C(N1CC[C@H](O)C1)N1CC(=O)N2C[C@@H](c3c(O)ccc(Cl)c3Cl)C[C@H]2C1 [Compound 102, (7R,8aS)-7-(2,3-dichloro-6-hydroxyphenyl)-2-[(3S)-3-hydroxypyrrolidine-1-carbonyl]-hexahydropyrro[1,2-a]pyrazine-4-one] | > 30 | < 1
21 | O=C(N1CC(CO)C1)N1CC(=O)N2C[C@@H](c3c(O)ccc(Cl)c3Cl)C[C@H]2C1 [Compound 103, (7R,8aS)-7-(2,3-dichloro-6-hydroxypheny1)-2-[3-(hydroxymethyl)azetidine-1-carbonyl]-hexahydropyrro[1,2-a]pyrazine-4-one] | > 30 | < 1
22 | O=C(NCCO)N1CC(=O)N2C[C@@H](c3c(O)ccc(Cl)c3Cl)C[C@H]2C1 [Compound 104, (7R,8aS)-7-(2,3-dichloro-6-hydroxyphenyl)-N-(2-hydroxyethyl)-4-oxo-hexahydropyrro[1,2-a]pyrazine-2-carboxamide] | > 30 | < 1
23 | NC(=O)CN1CC(=O)N2C[C@@H](c3c(O)ccc(Cl)c3Cl)C[C@H]2C1 [Compound 110, 2-[(7R,8aS)-7-(2,3-dichloro-6-hydroxyphenyl)-4-oxo-hexahydropyrrolo [1,2-a]pyrazin-2-yl]acetamide] | > 30 | < 1
24 | CNC(=O)CN1CC(=O)N2C[C@@H](c3c(O)ccc(Cl)c3Cl)C[C@H]2C1 [Compound 111, 2-[(7R,8aS)-7-(2,3-dichloro-6-hydroxyphenyl)-4-oxo-hexahydropyrrolo [1,2-a]pyrazin-2-yl]-N-methylacetamide] | > 30 | < 1
25 | O=C1CN(CC(O)CO)C[C@@H]2C[C@H](c3c(O)ccc(Cl)c3Cl)CN12 (stereo partly drawn) [Compound 112, (7R,8aS)-7-(2,3-dichloro-6-hydroxyphenyl)-2-(2,3-dihydroxypropyl)-hexahydropyrrolo [l,2-a]pyrazin-4-one] | > 30 | < 1
26 | O=C1CN(CCN2CCNCC2)C[C@@H]2C[C@H](c3c(O)ccc(Cl)c3Cl)CN12 [Compound 120, (7R,8aS)-7-(2,3-dichloro-6-hydroxyphenyl)-2-[2-(piperazin-1-yl)ethyl]-hexahydropyrrolo [1,2-a]pyrazin-4-one] | > 30 | < 1
27 | O=C1CN(CCN2CCOCC2)C[C@@H]2C[C@H](c3c(O)ccc(Cl)c3Cl)CN12 [Compound 121, (7R,8aS)-7-(2,3-dichloro-6-hydroxyphenyl)-2-[2-(morpholin-4-yl)ethyl]-hexahydropyrrolo [1,2-a]pyrazin-4-one] | < 30 | < 1
28 | O=C1CN(C(CO)CO)C[C@@H]2C[C@H](c3c(O)ccc(Cl)c3Cl)CCN12 [Compound 122, (8R,9aS)-8-(2,3-dichloro-6-hydroxyphenyl)-2-(1,3-dihydroxypropan-2-yl)-hexahydro-1H-pyrido[1,2-a] pyrazin-4-one] | > 30 | < 1
29 | O=C1CN(C2CC(O)C2)C[C@@H]2C[C@H](c3c(O)ccc(Cl)c3Cl)CN12 (stereo partly drawn) [Compound 123, (7R,8aS)-7-(2,3-dichloro-6-hydroxyphenyl)-2-(3-hydroxycyclobutyl)-hexahydropyrrolo[1,2-a]pyrazin-4-one] | > 30 | < 1
